Where two headings read alike, the source gives them in different places.
Experiments:
[1] = biological target: hBcl-2 (Homo sapiens, UniProt P10415); assay: FP assay, displacement of F-Puma from hBcl-2; assay type: binding
[2] = biological target: mMcl-1 (Mus musculus, UniProt P97287); assay: 1H,15N HSQC NMR titration, Mcl-1; assay type: binding; details: Mcl-1 Kd by 1H,15N HSQC NMR (N)
[3] = biological target: hMcl-1 (Homo sapiens, UniProt Q07820); assay: FP assay, displacement of F-Puma from hMcl-1; assay type: binding
[4] = biological target: double His-TEV-hMcl-1 (Homo sapiens, UniProt Q07820); assay: SPR direct binding, Mcl-1
[5] = biological target: Unmodified human Bcl-2 residues 1-207 (hBcl-2) (human, UniProt P10415 1-207); assay: fluorescence polarisation
[6] = read-out: Bcl-2 eKi, FP assay, NM = not measurable at top concentration (2.5 mM or solubility limit)

Sequence of mMcl-1 (P97287 152-308 limits assumed): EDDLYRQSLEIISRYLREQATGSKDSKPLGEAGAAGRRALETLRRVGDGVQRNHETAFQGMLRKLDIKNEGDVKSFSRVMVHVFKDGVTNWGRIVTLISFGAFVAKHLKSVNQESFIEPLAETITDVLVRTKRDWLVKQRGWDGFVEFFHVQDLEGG
Sequence of hBcl-2 (P10415 1-207): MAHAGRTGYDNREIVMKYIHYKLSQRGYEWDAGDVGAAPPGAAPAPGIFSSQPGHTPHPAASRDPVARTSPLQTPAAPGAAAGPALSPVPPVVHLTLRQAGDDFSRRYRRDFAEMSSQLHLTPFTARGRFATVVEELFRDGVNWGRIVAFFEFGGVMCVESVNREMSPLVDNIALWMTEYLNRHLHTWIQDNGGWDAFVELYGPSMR
Sequence of hMcl-1 (Q07820 171-327 limits assumed): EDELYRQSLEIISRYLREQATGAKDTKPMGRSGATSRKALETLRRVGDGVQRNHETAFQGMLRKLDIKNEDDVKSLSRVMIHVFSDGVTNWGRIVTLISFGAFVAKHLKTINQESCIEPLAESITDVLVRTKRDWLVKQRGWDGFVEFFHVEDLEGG
Sequence of double His-TEV-hMcl-1 (Q07820 171-327 limits assumed): as above
Sequence of Unmodified human Bcl-2 residues 1-207 (hBcl-2) (P10415 1-207): as the sequence (P10415 1-207) above

Ki [1] [µM] | Kd [2] [µM] | Ki [3] [µM] | Kd [4] [µM] | Ki [1, 6] [µM] | binding result [5] | Molecule
80 | 85 | 40 | 140 |  |  | O=C(O)c1nc(C2COc3ccccc3O2)sc1Cc1ccccc1 (stereo not drawn) [Compound 22]
 | 360 | 500 |  | > 2500 |  | O=C(O)c1csc(C2CNc3ccccc3O2)n1 (stereo not drawn) [Compound 23]
500 | 220 | 20 |  |  |  | CCN1CC(c2nc(C(=O)O)cs2)Oc2ccccc21 (stereo not drawn) [Compound 24]
800 | 40 | 40 | 450 |  |  | O=C(O)c1csc(C2CN(Cc3ccccc3)c3ccccc3O2)n1 (stereo not drawn) [Compound 25]
 | 110 | 30 |  | > 2500 |  | O=C(O)c1csc([C@H]2CN(Cc3ccccc3)c3ccccc3O2)n1 [Compound 26]
 | 140 | 40 |  | > 2500 |  | O=C(O)c1csc([C@@H]2CN(Cc3ccccc3)c3ccccc3O2)n1 [Compound 27]
 |  |  |  |  | binds | RGEEEQWAREIGAQLRRMADDLN [Puma peptide]

— PMC6648477 (ACS Omega, 2019)
